Measurements: US20250122222A1, “HETEROCYCLIC COMPOUNDS AND METHODS OF USE” (AMGEN INC., priority 2021, published 2025)

Experiments:
[1] = molecular target: His-tagged KRAS G12D protein (Homo sapiens, UniProt P01116, G12D); assay: KRAS G12D TR-FRET assay (binding); conditions: biotinylated KRPep-2d substrate, GDP in assay buffer
[2] = system: Phosphorylation of ERK1/2 in AsPC-1 cells; assay: Phospho-ERK1/2 MSD assay; assay type: cell-based; conditions: Homo sapiens, ASPC1, read-out: 2 h p-ERK (AsPC-1 cells), IC50 (μM), 2 hours compound treatment
Method: Sixteen hours prior to compound treatment, AsPC-1 cells were seeded in 96-well cell culture plates at a density of 25,000 cells/well and incubated at 37° C., 5% CO2. A compound dose-response titration was diluted in growth media, added to appropriate wells of a cell culture plate, and then incubated at 37° C., 5% CO2 for 2 hours.

Sequence of His-tagged KRAS G12D protein (P01116 1-188 isoform P01116-2 G12D): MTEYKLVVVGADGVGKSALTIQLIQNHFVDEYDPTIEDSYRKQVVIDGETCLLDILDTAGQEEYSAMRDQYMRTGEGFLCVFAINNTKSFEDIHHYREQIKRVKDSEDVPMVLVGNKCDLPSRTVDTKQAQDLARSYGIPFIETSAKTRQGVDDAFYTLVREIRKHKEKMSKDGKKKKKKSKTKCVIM

| IC50 [1] | IC50 [2] | Compound |
| --- | --- | --- |
| 13 nM | 5.95 µM | CCc1c(F)ccc2cc(O)cc(-c3ncc4c(N5CCOC(CO)CC5)nc(OC[C@@]56CCCN5C[C@H](F)C6)nc4c3F)c12 (stereo partly drawn) [Example 57, 5-Ethyl-6-fluoro-4-(8-fluoro-2-(((2R, 7aS)-2-fluorotetra-hydro-1H-pyrrolizin-7a(5H)-yl)methoxy)-4-(7-(hydroxymeth-yl)-1,4-oxazepan-4-yl)pyrido[4,3-d]pyrimidin-7-yl)-naphthalen-2-ol] |
| 15 nM | 0.592 µM | CCc1c(F)ccc2cc(O)cc(-c3ncc4c(N5CCOC6CC65)nc(OC[C@@]56CCCN5C[C@H](F)C6)nc4c3F)c12 (stereo partly drawn) [Example 66, 4-(4-((1R,6S)-2-oxa-5-azabicyclo[4.1.0]heptan-5-yl)-8-fluoro-2-(((2R,7aS)-2-fluorotetrahydro-1H-pyrrolizin-7a(5H)-yl)methoxy)-pyrido[4,3-d]pyrim-idin-7-yl)-5-ethyl-6-fluoronaphthalen-2-ol] |
| 5 nM | 0.103 µM | CN1C[C@H](F)C[C@H]1COc1nc(N2CCCOCC2)c2cnc(-c3cc(O)cc4ccc(F)c(F)c34)c(F)c2n1 [Example 8, 5,6-Difluoro-4-(8-fluoro-2-(((2S,4R)-4-fluoro-1-methylpyrrolidin-2-yl)methoxy)-4-(1,4-oxazepan-4-yl)pyrido[4,3-d]pyrimidin-7-yl)naphthalen-2-ol] |
| 13 nM | 0.966 µM | CCc1cccc2cc(O)cc(-c3ncc4c(N5CCCOCC5)nc(OC[C@@H]5C[C@@H](F)CN5C)nc4c3F)c12 [Example 32, 5-Ethyl-4-(8-fluoro-2-(((2S,4R)-4-fluoro-1-methylpyrrolidin-2-yl)methoxy)-4-(1,4-oxazepan-4-yl)pyrido[4,3-d]pyrimidin-7-yl)naphthalen-2-ol] |
| 11 nM | 0.586 µM | CCc1c(F)ccc2cc(O)cc(-c3ncc4c(N5CCOCC5)nc(OC[C@@]56CCCN5C[C@H](F)C6)nc4c3F)c12 [Example 24, 5-Ethyl-6-fluoro-4-(8-fluoro-2-(((2R,7aS)-2-fluorotetrahydro-1H-pyrrolizin-7a(5H)-yl)methoxy)-4-morpholinopyrido [4,3-d]pyrimidin-7-yl)naphthalen-2-ol] |
| 21 nM | > 10 µM | CCc1c(F)ccc2cc(O)cc(-c3ncc4c(N5CCCS(=N)(=O)CC5)nc(OC[C@@]56CCCN5C[C@H](F)C6)nc4c3F)c12 (stereo partly drawn) [Example 38, 4-(7-(8-Ethyl-7-fluoro-3-hydroxynaphthalen-1-yl)-8-fluoro-2-(((2R,7aS)-2-fluorotetrahydro-1H-pyrrolizin-7a(5H)-yl)methoxy)pyrido[4,3-d]pyrimidin-4-yl)-1-imino-1 λ^6,4-thiazepane 1-oxide] |
| 2 nM | 0.088 µM | CCc1c(F)ccc2cc(O)cc(-c3ncc4c(N5CCCSCC5)nc(OC[C@@]56CCCN5C[C@H](F)C6)nc4c3F)c12 [Example 5, 5-Ethyl-6-fluoro-4-(8-fluoro-2-(((2R,7aS)-2-fluorotetrahydro-1H-pyrrolizin-7a(5H)-yl)methoxy)-4-(1,4-thiazepan-4-yl)pyrido[4,3-d]pyrimidin-7-yl)naphthalen-2-ol] |
| 4 nM | 0.024 µM | CCc1c(F)ccc2cc(O)cc(-c3ncc4c(N5CCOC[C@@](C)(O)C5)nc(OC[C@@]56CCCN5C[C@H](F)C6)nc4c3Cl)c12 (single isomer, unassigned) [Example 80] |
| 39 nM | 1.24 µM | CCc1c(F)ccc2cc(O)cc(-c3ncc4c(N5CCO[C@@H](COC)C5)nc(OC[C@@]56CCCN5C[C@H](F)C6)nc4c3F)c12 [Example 53, 5-Ethyl-6-fluoro-4-(8-fluoro-2-(((2R, 7aS)-2-fluorotetra-hydro-1H-pyrrol-izin-7a(5H)-yl)-methoxy)-4-((R)-2-(methoxymeth-yl)morpholino)pyr-ido[4,3-d]pyrimi-din-7-yl)naph-thalen-2-ol] |
| 3 nM | 0.189 µM | CCc1c(F)ccc2cc(O)cc(-c3ncc4c(N5CCCOCC5)nc(OCC5(CN6CCOCC6)CC5)nc4c3F)c12 [Example 17, 5-Ethyl-6-fluoro-4-(8-fluoro-2-((1-(morpholinomethyl)cyclopropyl)methoxy)-4-(1,4-oxazepan-4-yl)pyrido[4,3-d]pyrimidin-7-yl)naphthalen-2-ol] |
| 10 nM | 1.05 µM | CCc1c(F)ccc2cc(O)cc(-c3ncc4c(N5CCCOC(CO)C5)nc(OC[C@@]56CCCN5C[C@H](F)C6)nc4c3F)c12 (single isomer, unassigned) [Example 48] |

| Compound | IC50 [1] | IC50 [2] |
| --- | --- | --- |
| CCc1c(F)ccc2cc(O)cc(-c3ncc4c(N5[C@@H]6CC[C@H]5COC6)nc(OC[C@@]56CCCN5C[C@H](F)C6)nc4c3F)c12 [Example 6, 4-(4-((1R,5S)-3-Oxa-8-azabicyclo[3.2.1]octan-8-yl)-8-fluoro-2-(((2R,7aS)-2-fluorotetrahydro-1H-pyrrolizin-7a(5H)-yl)methoxy)pyrido [4,3-d]pyrimidin-7-yl)-5-ethyl-6-fluoronaphthalen-2-ol] | 69 nM | 1.77 µM |
